Experimental data from US8592374B2, “Neurotrophic peptides” (Research Foundation for Mental Hygiene, Inc., priority 2007, dated 2013).

Key:
[1] = tested on: dentate gyrus progenitors; experiment: DCX expression in BrdU labeled progenitors in the dentate gyrus; type: in vivo, mice; settings: 14 day treatment group
Excerpt: (§1) All experiments involving mice were done on 8-10 month old female retired breeders of C57BL6 background. A total of 33 mice were divided into 10 groups of 3 animals each (except control group which had 6 mice). The groups are described in Table 1. Details of CNTF peptides are described in Table 2.
(§2) The animals were kept in groups of 3 per cage. The mice were given daily intraperitoneal injections of four CNTF peptides either separately or in a mixture for 2 weeks as described in table 1. From day 2, BrdU (Bromodeoxyuridine; 150 mg/Kg) was added to the injections. The animals were sacrificed 24 hours after the last injection (FIG. 1). Briefly, the animals were perfused transcardially with PBS and their brains taken out and dissected into halves. One hemisphere from each animal was frozen for biochemical analysis and the other was fixed in 4% paraformaldehyde for 48 hours followed by equilibration in 30% sucrose in PBS overnight. These were then processed for immunohistochemistry.
(§3) Fixed tissues were cut into 40 μm sections on a freezing sliding microtome. One in 5 sections per brain was processed for BrdU staining and visualized by immunoflorecence. Cell counting was done on these sections to determine the number of BrdU labeled cells (representing newly born cells) in the dentate gyrus of the hippocampus. The area of counting was limited to the granule cell layer and the subgranular zone (a two-nucleus thick layer adjacent to the granule cell layer). For counting purposes, the dentate gyrus was divided into two areas, the outer granule cell layer (oGCL) consisting of out half of the granule cell layer, and the subventricular zone (SVZ) comprising of the inner half (towards the hilus) of the granule cell layer plus a two-nucleus thick layer adjacent to the outer border of the hilus. Cell counting was done on confocal images of the sections according to the optical dissector principle. Volumetric analysis was carried out with the help of Image Pro software.

[2] = tested on: dentate gyrus progenitor cells; experiment: Cell proliferation (BrdU labeled cells) in the dentate gyrus of mice given CNTF peptides i.p.; type: in vivo
Excerpt: as §1
as §2, with “Table” for “table”, “injection.” for “injection (FIG. 1).”
as §3, with “of one” for “of out”, “the subgranular” for “the subventricular”, “zone (SGZ)” for “zone (SVZ) comprising”
as §2, §3

dentate gyrus = experiment: MAP2 and synaptophysin immunoreactivity in the dentate gyrus (mean pixel intensity), Example 3; type: in vivo, mice; settings: mean pixel intensity in outlined area
Procedure: as §2

[3] = tested on: signal transduction of LIF and CNTF; experiment: Interference with signal transduction of LIF and CNTF
mice = experiment: Morris Water Maze, Peptide 6 subcutaneous pellets; type: in vivo; settings: 30 day group
Procedure: Behavioral tests employing Morris Water maze task-based memory acquisition, retention and recall paradigms have also been carried out. Two groups of 18 mice each were treated with Peptide 6/Placebo containing implantable subcutaneous pellets with user specified timed release kinetics: 14 days for group 1 and 30 days for group 2.

[4] = both concentrations (0.5 and 5 nmoles/animal)

Ac-VGDGGLFEKKL-NH2 [Peptide 6]
differentiation of dentate gyrus progenitors into DCX (doublecortin) expressing cells [1]: two fold increase | cell proliferation in the SGZ (subgranular zone) [2, 4]: increased cell proliferation | cell proliferation in the oGCL (outer portion of the granule cell layer) [2, 4]: increased cell proliferation | proliferation of dentate gyrus progenitor cells compared with Peptide 9 ([2]; daily i.p. injections for 2 weeks): more proliferation than Peptide 9 | proliferation of dentate gyrus progenitor cells ([2]; daily i.p. injections for 2 weeks, BrdU labeling, 8-10 month old female C57BL6 mice): statistically significant increase | MAP2 immunoreactivity in the dentate gyrus (dentate gyrus): statistically significant increase | synaptophysin immunoreactivity in the dentate gyrus (dentate gyrus): statistically significant increase | interference with signal transduction of LIF versus CNTF [3]: interferes with the signal transduction of LIF more than with that of CNTF | memory acquisition (time spent and distance covered in the target quadrant), Morris Water Maze (mice): significant improvement in memory acquisition
